This is an account of results in article PMC6222558, “Synthesis and Evolution of Berberine Derivatives as a New Class of Antiviral Agents against Enterovirus 71 through the MEK/ERK Pathway and Autophagy” (Molecules : A Journal of Synthetic Chemistry and Natural …, 2018).

Data set [1] relates to EV71 BrCr strain (VR-1775, genotype A). Kind of data set: CPE inhibition assay for anti-EV71, BrCr strain. As to conditions: Enterovirus A, EV71; Vero cells; CPE; calculated on the organic part; n = 3; read-out: BrCr Strain IC50. The data set is classed as cell-based, enterovirus 71 (EV71). The procedure:
(§1) Thus, all newly synthesized BBR analogues were screened for their anti-EV71 potencies in African green monkey kidney (Vero) cells taking BBR as the positive control. EV71 strains used in the present study include different genotype strains, such as H strain (VR-1432, genotype C2), BrCr strain (VR-1775, genotype A), and JS-52 and SHZH98 (genotype C4). The potency against EV71 strains above mentioned of each tested compound was evaluated by the combination of its IC50 and selectivity index (SI) value as the important therapeutic indication.
(§2) Vero cells were purchased from the American Type Culture Collection (ATCC, […], MD, USA), and were cultured in Minimum Essential Medium (MEM) supplemented with 10% fetal bovine serum (FBS) (GIBCO, Grand Island, NY, USA) and antibiotics (100 U/mL penicillin and […] streptomycin) at 37 °C in a 5% CO2 incubator. EV71 strain SHZH98 isolated from the throat swab sample of an HFMD case occurring in 1998 in China was kindly provided by Dr. Qi Jin (Institute of Pathogen Biology, Chinese Academy of Medical Science and Peking Union Medical School, Beijing, China), and JS-52 strain was a kind gift from Dr. Xiangzhong Ye (Beijing Wantai Biological Pharmacy Enterprise Co., Ltd., Beijing, China). The EV71 BrCr and H strains were purchased from the ATCC. All of EV71 strains were passaged in Vero cells.
(§3) The anti-EV71 activities of all tested compounds were detected by the virus-induced CPE assay. Briefly, cells (3 × 10^4 cells/well) were plated into 96-well culture plates and incubated for 16 h. Then, remove the medium and infected cells with EV71 of 100 × TCID50 (50% tissue culture infective doses) in serum-free medium for 1 h at 37 °C. After that, the unbound viruses were removed and various concentrations of tested compounds were supplemented for incubation of another 72 h. […] TC50 defined as the concentration that leads to the 50% of CPE which determined by the same method in 72 h. In addition, the cells were stained the cells were colored with 0.5% crystal violet in 20% ethanol for 15 min at room temperature and the cells were imaged after rinsed with PBS.

The next data set relates to Vero cells. Kind of data set: Cytotoxicity assay (CCK) in Vero cells. In kind it is cell-based, African green monkey. As to conditions: African green monkey, 48 h. As for the experimental part:
as §2
Cytotoxicity of all target compounds in Vero cells was analyzed by CCK (TransGen Biotech, Beijing, China) assay. In brief, cells in exponential phase (3 × 10^4 cells/well) were seeded into 96-well culture plates and incubated overnight. Then, the medium was removed and different concentrations of all target compounds were applied in duple. After 48 h incubation, the cytotoxicity of all target compounds was determined by CCK assay. The signals were read at 450 nm on Enspire (Perkin Elmer, Waltham, MA, USA). The TC50 was defined as the concentration that inhibits 50% cellular growth in comparison with the controls. It is calculated by the Reed and Muench method.

Data set [2] has as its system EV71 SHZH98 strain (genotype C4). The data set is described as follows: CPE inhibition assay for anti-EV71, SHZH98 strain. In kind it is cell-based, enterovirus 71 (EV71). As to conditions: Enterovirus A, EV71; Vero cells; CPE; calculated on the organic part; n = 3; read-out: SHZH98 Strain IC50. As for the experimental part:
as §1, §2, §3

The test system of data set [3] is EV71 JS-52 strain (genotype C4). Kind of data set: CPE inhibition assay for anti-EV71, JS-52 strain. The data set is classed as cell-based, enterovirus 71 (EV71). As to conditions: Enterovirus A, EV71; Vero cells; CPE; calculated on the organic part; n = 3; read-out: JS-52 Strain IC50. The procedure:
as §1, §2, §3

Data set [4] concerns EV71 H strain (VR-1432, genotype C2). Kind of data set: CPE inhibition assay for anti-EV71, H strain. The data set is classed as cell-based, enterovirus 71 (EV71). Conditions: Vero cells; for IC50: Enterovirus A, EV71, CPE, calculated on the organic part, n = 3, read-out: H Strain IC50; for anti-EV71 activity against H strain, in words: compared with BBR. As for the experimental part:
as §1, §2, §3

The term IC50 denotes the concentration at which inhibition is half-maximal. Regarding `CCOC(=O)COc1c(OC)ccc2cc3[n+](cc12)CCc1cc2c(cc1-3)OCO2` [2a, 2,3-Methylenedioxy-9-ethyloxyformylmethylenoxy-10-methoxy protoberberine chloride], the IC50 is 32.3 µM in data set [1], 60.4 µM in data set [2], 45.5 µM in data set [3] and 48.3 µM in data set [4]. Also, in the data set on Vero cells, the “TC50 (median toxic concentration)” value worked out at 223 µM.
Turning to `COc1ccc2cc3[n+](cc2c1OCC(=O)OCC(C)C)CCc1cc2c(cc1-3)OCO2` [2b, 2,3-Methylenedioxy-9-isobutyloxyformylmethylenoxy-10-methoxy protoberberine chloride], the IC50 in data set [1] is 2.04 µM; in data set [2] it was 5.46 µM; in data set [3], 5.73 µM; in data set [4], more than 5.34 µM. Besides, the “TC50 (median toxic concentration)” value in the data set on Vero cells amounted to 22.3 µM.
For `COc1ccc2cc3[n+](cc2c1OCC(=O)C(C)(C)C)CCc1cc2c(cc1-3)OCO2` [2c, 2,3-Methylenedioxy-9-pivalylmethylenoxy-10-methoxy protoberberine chloride], in that order: 4.26 µM, 8.59 µM, 7.26 µM, 13.8 µM and 27.9 µM.
Take `COc1ccc2cc3[n+](cc2c1OCC(=O)O)CCc1cc2c(cc1-3)OCO2` [2d-a, 2,3-Methylenedioxy-9-carboxylmethylenoxy-10-methoxy protoberberine chloride]: the IC50 in data set [1] is 145 µM; in data set [2] it was more than 145 µM; in data set [3], 145 µM; in data set [4], more than 145 µM. The “TC50 (median toxic concentration)” value in the data set with Vero cells was found to be 437 µM. For the same molecule, in data set [4], the “anti-EV71 activity against H strain, in words” value (“anti-EV71 activity” below) is given as “complete loss on the antivirus potency”.
Turning to `COc1ccc2cc3[n+](cc2c1OCC(=O)c1ccc(C)cc1)CCc1cc2c(cc1-3)OCO2` [2e, 2,3-Methylenedioxy-9-p-tolylformylmethylenoxy-10-methoxy protoberberine chloride], the IC50 was 2.23 µM in data set [1], 2.84 µM in data set [2], 2.67 µM in data set [3] and more than 5.31 µM in data set [4]. Further, the “TC50 (median toxic concentration)” value with Vero cells worked out at 14.4 µM.
For `COc1cccc(C(=O)COc2c(OC)ccc3cc4[n+](cc23)CCc2cc3c(cc2-4)OCO3)c1` [2f, 2,3-Methylenedioxy-9-m-methoxyphenylformylmethylenoxy-10-methoxy protoberberine chloride], in that order: 2.21 µM, 1.85 µM, 1.61 µM, more than 5.33 µM and 9.22 µM.
For the molecule `COc1ccc2cc3[n+](cc2c1OCC(=O)c1ccc(C(F)(F)F)cc1)CCc1cc2c(cc1-3)OCO2` [2g, 2,3-Methylenedioxy-9-p-trifloromethylphenylformylmethylenoxy-10-methoxy protoberberine chloride], the IC50 in data set [1] was 10.6 µM; in data set [2], 12.3 µM; in data set [3], 11.9 µM; in data set [4], 15.8 µM. For the same molecule, the “TC50 (median toxic concentration)” value in the data set with Vero cells worked out at 54.9 µM.
Turning to `COc1ccc2cc3[n+](cc2c1OC(=O)OCc1ccccc1)CCc1cc2c(cc1-3)OCO2` [2h, 2,3-Methylenedioxy-9-benzyloxyformyloxy-10-methoxy protoberberine chloride], the IC50 in data set [1] is 47.9 µM; in data set [2] it was more than 47.9 µM; in data set [3], more than 47.9 µM; in data set [4] it was more than 47.9 µM. The “TC50 (median toxic concentration)” value with Vero cells was found to be 124 µM. The “anti-EV71 activity” value in data set [4] is recorded as “obvious decreased activity”.
Turning to `CCOC(=O)Oc1c(OC)ccc2cc3[n+](cc12)CCc1cc2c(cc1-3)OCO2` [2i, 2,3-Methylenedioxy-9-ethyloxyformyloxy-10-methoxy protoberberine chloride], the half-inhibitory concentration (IC50) was 33.6 µM in data set [1], 45.7 µM in data set [2], 43.6 µM in data set [3] and 31.1 µM in data set [4]. Besides, in the data set on Vero cells, the “TC50 (median toxic concentration)” value was 167 µM. The “anti-EV71 activity” value in data set [4] is on record as “obvious decreased activity”.
Consider `CCOC(=O)COc1c(OC)ccc2cc3[n+](cc12)CCc1cc(OC)c(OC)cc1-3` [4a, 2,3,10-Trimethoxy-9-ethyloxyformylmethylenoxy protoberberine chloride], for which the concentration for half-maximal inhibition (IC50) in data set [1] is more than 144 µM; in data set [2] it was more than 144 µM; in data set [3], more than 144 µM; in data set [4], 144 µM. In the data set on Vero cells, the “TC50 (median toxic concentration)” value was found to be 434 µM.
Turning to `COc1cc2c(cc1OC)-c1cc3ccc(OC)c(OCC(=O)C(C)(C)C)c3c[n+]1CC2` [4b, 2,3,10-Trimethoxy-9-pivalylmethylenoxy protoberberine chloride], the IC50 is 144 µM in data set [1], more than 144 µM in data set [2], 109 µM in data set [3] and more than 144 µM in data set [4]. In the data set on Vero cells, the “TC50 (median toxic concentration)” value came to 333 µM.
Regarding `COc1cc2c(cc1OC)-c1cc3ccc(OC)c(OCC(=O)OCc4ccccc4)c3c[n+]1CC2` [4c, 2,3,10-Trimethoxy-9-benzyloxyformylmethylenoxy protoberberine chloride], the IC50 was 81.1 µM in data set [1], more than 143 µM in data set [2], 99.3 µM in data set [3] and more than 143 µM in data set [4]. Further, the “TC50 (median toxic concentration)” value in the data set on Vero cells was 452 µM.
For the molecule `COc1cc2c(cc1OC)-c1cc3ccc(OC)c(OCC(=O)c4ccc(C)cc4)c3c[n+]1CC2` [4d, 2,3,10-Trimethoxy-9-p-tolylformylmethylenoxy protoberberine chloride], the IC50 is 44.2 µM in data set [1], more than 47.8 µM in data set [2], 44.2 µM in data set [3] and more than 15.9 µM in data set [4]. Further, in the data set on Vero cells, the “TC50 (median toxic concentration)” value is 50.0 µM.
Turning to `COc1cccc(C(=O)COc2c(OC)ccc3cc4[n+](cc23)CCc2cc(OC)c(OC)cc2-4)c1` [4e, 2,3,10-Trimethoxy-9-m-methoxyphenylformylmethylenoxy protoberberine chloride], the IC50 is 17.1 µM in data set [1], 27.6 µM in data set [2], 19.4 µM in data set [3] and 13.6 µM in data set [4]. Besides, the “TC50 (median toxic concentration)” value in the data set with Vero cells worked out at 143 µM. Also, in data set [4], the “anti-EV71 activity” value is “comparable activity to BBR”.
For `COc1cc2c(cc1OC)-c1cc3ccc(OC)c(OCC(=O)c4ccc(C(F)(F)F)cc4)c3c[n+]1CC2` [4f, 2,3,10-Trimethoxy-9-p-trifloromethylphenylformylmethylenoxy protoberberine chloride], the IC50 was 66 µM in data set [1], 82.2 µM in data set [2], 54.2 µM in data set [3] and 82.2 µM in data set [4]. In addition, the “TC50 (median toxic concentration)” value with Vero cells was found to be 306 µM.
Turning to `COc1cc2c(cc1OC)-c1cc3ccc(OC)c(OC(=O)OCc4ccccc4)c3c[n+]1CC2` [4g, 2,3,10-Trimethoxy-9-benzyloxyformyloxy protoberberine chloride], the half-maximal inhibitory concentration (IC50) in data set [1] was more than 143 µM; in data set [2], more than 143 µM; in data set [3] it was 129 µM; in data set [4], more than 143 µM. The “TC50 (median toxic concentration)” value in the data set on Vero cells is 351 µM.
With `CCOC(=O)COc1cc2c(cc1OC)-c1cc3ccc(OC)c(OC)c3c[n+]1CC2` [5a, 2,9,10-Trimethoxy-3-ethyloxyformylmethylenoxy protoberberine chloride], the IC50 was 125 µM in data set [1], 144 µM in data set [2], 109 µM in data set [3] and 130 µM in data set [4]. Further, in the data set with Vero cells, the “TC50 (median toxic concentration)” value was 250 µM.
